Here are results for seven molecules from article PMC6479349, “Derivatives of 3-Aminopyrazine-2-carboxamides: Synthesis, Antimicrobial Evaluation, and in Vitro Cytotoxicity” (Molecules, 2019).

The subject of data set [1] is Mycobacterium smegmatis DSM 43465. The data set is described as follows: Antimycobacterial microdilution broth panel MIC (resazurin). It is filed as cell-based. The note with it: for MIC: Mycolicibacterium smegmatis. For orientation: In broth dilution the organism is exposed to a series of concentrations in liquid medium.
Data set [2] deals with Mycobacterium tuberculosis H37Rv. The data set is described as follows: Antimycobacterial microdilution broth MIC (Alamar Blue). It is filed as cell-based.
Data set [3] relates to Mycobacterium aurum DSM 43999. The data set is described as follows: Antimycobacterial microdilution broth panel MIC (resazurin). The format is cell-based. The note with it: Mycolicibacterium aurum, DSM43999.
The test system of data set [4] is M. kansasii CNCTC My 235/80. The data set is described as follows: Antimycobacterial microdilution broth MIC (Alamar Blue). It is filed as cell-based, Mycobacterium kansasii.
For data set [5], the system named is M. avium ssp. avium CNCTC My 80/72. The data set is described as above. It is filed as cell-based, Mycobacterium avium.
Data set [6] relates to Candida albicans CCM 8320. The data set is described as follows: Antifungal microdilution broth MIC. Conditions: CCM8320, 48 h, read-out: MIC Candida albicans (standards).
Data set [7] deals with Aspergillus flavus CCM 8363. Nature of the data set: Antifungal microdilution broth MIC. Conditions: CCM8363, 48 h, read-out: MIC Aspergillus flavus (standards).
The test system of the next data set is C. tropicalis CCM 8264. The data set is described as follows: Antifungal microdilution broth MIC. The note with it: Candida tropicalis, CCM8264, 48 h, read-out: MIC C. tropicalis (standards).
For a further data set, the system named is C. krusei CCM 8271. Nature of the data set: Antifungal microdilution broth MIC. The note with it: Pichia kudriavzevii, CCM8271, 48 h, read-out: MIC C. krusei (standards).
The subject of a further data set is C. parapsilosis CCM 8260. Nature of the data set: Antifungal microdilution broth MIC. The note with it: Lodderomyces parapsilosis, CCM8260, 48 h, read-out: MIC C. parapsilosis (standards).
Data set [8] deals with Lichtheimia corymbifera CCM 8077. The data set is described as follows: Antifungal microdilution broth MIC. Conditions: CCM8077, 48 h, read-out: MIC Lichtheimia corymbifera (standards).
Data set [9] concerns Trichophyton interdigitale CCM 8377. Nature of the data set: Antifungal microdilution broth MIC. The note with it: Trichophyton interdigitale, CCM8377, 72 h, read-out: MIC Trichophyton interdigitale (standards).
In data set [10] the test system is Aspergillus fumigatus ATCC 204305. The data set is described as follows: Antifungal microdilution broth MIC. Conditions: ATCC204305, 48 h, read-out: MIC Aspergillus fumigatus (standards).
Data set [11] deals with Ataxia Telangiectasia and Rad3 Related (ATR) protein kinase. More on the design: method as in doi:10.1007/s00044-013-0665-6. Conditions: cited from earlier work.
Data set [12] in a line: Lipophilicity by reverse phase HPLC (log k). Conditions: RP-HPLC C18, MeOH 70% / H2O 30%, 30 °C.
Experimental: The mobile phase consisted of MeOH (HPLC grade, 70%) and H2O (HPLC-Milli-Q Grade, 30%). The flow rate was 1.0 mL/min, samples were injected in a volume of 20 µL, and the column temperature was 30 °C. Detection and monitoring wavelength were 210 nm and 270 nm, respectively. Retention times (Rt) were measured in minutes. The dead time of the system (Dt) was determined as the retention time of the KI methanolic solution. Capacity factors k for individual compounds were calculated according to the formula k = (Rt – Dt)/Dt. Capacity factor k was converted to log scale and (log k) and used as a measure of lipophilicity.
The nature of data set [13]: In vitro cytotoxicity, CellTiter 96 Aqueous One. Conditions: human.
Another data set deals with HepG2 cell line. The data set is described as follows: In vitro cytotoxicity, CellTiter 96 Aqueous One.
Data set [14] is described as follows: Solubility in the cytotoxicity testing medium. Conditions: cytotoxicity assay medium; highest tested concentration 50 µM.
The test system of data set [15] is Pseudomonas aeruginosa CCM 3955. The arrangement: method as in PMID 26084645. The note with it: previously published positional isomer; cited from earlier work.
Data set [16] deals with Serratia marcescens 62-2016. Nature of the data set: Antibacterial microdilution broth MIC. The note with it: Serratia marcescens, 622016, 48 h, read-out: MIC Serratia marcescens (standards).
Data set [17] has as its system Staphylococcus aureus CCM 4223. The data set is described as follows: Antibacterial microdilution broth MIC. Conditions: CCM4223, 48 h, read-out: MIC Staphylococcus aureus (standards).
The subject of data set [18] is Enterococcus faecalis CCM 4224. Nature of the data set: Antibacterial microdilution broth MIC. Conditions: CCM4224, 48 h, read-out: MIC Enterococcus faecalis (standards).
In data set [19] the test system is Klebsiella pneumoniae 64-2016. Nature of the data set: Antibacterial microdilution broth MIC. Conditions: Klebsiella pneumoniae, 642016, 48 h, read-out: MIC Klebsiella pneumonia (standards).
Data set [20] concerns Staphylococcus epidermidis 112-2016. The data set is described as follows: Antibacterial microdilution broth MIC. Conditions: Staphylococcus epidermidis, 1122016, 48 h, read-out: MIC Staphylococcus epidermidis (standards).
For data set [21], the system named is Escherichia coli CCM 3954. Nature of the data set: Antibacterial microdilution broth MIC. Conditions: CCM3954, 48 h, read-out: MIC Escherichia coli (standards).
Data set [22] has as its system Staphylococcus aureus methicillin resistant CCM 4750. The data set is described as follows: Antibacterial microdilution broth MIC. The note with it: CCM4750, 48 h, read-out: MIC Staphylococcus aureus methicillin resistant (standards).
The test system of data set [23] is Pseudomonas aeruginosa CCM 3955. Nature of the data set: Antibacterial microdilution broth MIC. Conditions: CCM3955, 48 h, read-out: MIC Pseudomonas aeruginosa (standards).
Where [24] appears, read: Mycobacterium tuberculosis, H37RV, pH 6.6, M. tuberculosis H37Rv, Middlebrook 7H9 pH 6.6.
The mark [25] stands for this setting: Mycobacterium tuberculosis, H37RV, M. tuberculosis H37Rv, value in parentheses.

Structures are written as SMILES. ≈ marks a conversion by molar mass, not a printed value.

As usually defined, the MIC is the smallest concentration in the dilution series that meets the test's criterion for growth inhibition. With `NNC(=O)c1ccncc1` [INH, isoniazid, reference compound], the “MIC M. smegmatis” value in data set [1] lay within 7.81 to 15.62 µg/mL. Further, the minimum inhibitory concentration (MIC) in data set [1] (DSM43465) is 7.81 to 15.6 µg/mL; in [2] (setting [24]), 0.1 to 0.2 µg/mL; in [3], 1.95 to 3.91 µg/mL (≈ 14.2 to 28.5 µM). Further, the “MIC M. kansasii” value in data set [4] was 3.13 to 12.5 µg/mL. For the same molecule, the “MIC M. avium” value in data set [5] lay in the range of 6.25 to 12.5 µg/mL.

`C[C@@H](c1ncncc1F)[C@](O)(Cn1cncn1)c1ccc(F)cc1F` [voriconazole]: the MIC in data set [6] is over 16 µg/mL; in [7], over 16 µg/mL; with C. tropicalis CCM 8264 it was over 16 µg/mL; in the data set on C. krusei CCM 8271 it was 0.5 µg/mL (≈ 1.43 µM); with C. parapsilosis CCM 8260, 8 µg/mL (≈ 22.9 µM); in [8] it was over 16 µg/mL. Further, the MIC in data set [9] is over 16 µg/mL; in [10] it was 1 µg/mL (≈ 2.86 µM).

Take `Nc1nccnc1C(=O)Nc1ccccc1` [Compound 13, 3-Amino-N-phenylpyrazine-2-carboxamide]: the MIC is over 500 µg/mL in data set [1] (DSM43465); over 2330 µM in [1] (DSM43465, value in parentheses); over 467 µM in data set [2] (setting [25]); over 100 µg/mL in data set [2] (setting [24]). For the same molecule, the “inhibitory effects on ATR protein kinase” value in data set [11] was “inhibitory effects”. The molecule further gave a log k in [12] of 0.189.

Take `C[C@@H]1[C@H](O)[C@@H](C)/C=C/C=C/C=C/C=C/C=C/C=C/C=C/[C@H](O[C@@H]2O[C@H](C)[C@@H](O)[C@H](N)[C@@H]2O)C[C@@H]2O[C@](O)(C[C@@H](O)C[C@@H](O)[C@H](O)CC[C@@H](O)C[C@@H](O)CC(=O)O[C@H]1C)C[C@H](O)[C@H]2C(=O)O` [amphotericin B]: the minimum inhibitory concentration (MIC) in data set [7] was 8 µg/mL (≈ 8.66 µM); in the data set with C. tropicalis CCM 8264, 1 µg/mL (≈ 1.08 µM); in the data set with C. krusei CCM 8271, 1 µg/mL (≈ 1.08 µM); in the data set with C. parapsilosis CCM 8260, 0.5 µg/mL (≈ 0.541 µM); in data set [8], 0.5 µg/mL (≈ 0.541 µM); in data set [9], 2 µg/mL (≈ 2.16 µM).

A word on the IC50: it is the concentration needed to halve the response being measured. In the case of `COc1ccc(NC(=O)c2nccnc2N)c(OC)c1` [Compound 17, 3-Amino-N-(2,4-dimethoxyphenyl)pyrazine-2-carboxamide], the minimal inhibitory concentration (MIC) was over 500 µg/mL in data set [1] (DSM43465); over 1820 µM in data set [1] (DSM43465, value in parentheses); 45.6 µM in data set [2] (M. tuberculosis H37Rv, value in parentheses); 46 µM in [2] (setting [25]); 12.5 µg/mL in data set [2] (setting [24]). The molecule also returned a half-inhibitory concentration (IC50) at 24 h in [13] of over 50 µM. The “cytotoxicity against HepG2” value with HepG2 cell line is reported as “nontoxic”. In addition, the log k in data set [12] is 0.37. Also, in [14], the “solubility in the testing medium” value is reported as “decreased solubility”.

As for `Nc1cnc(C(=O)Nc2ccc(C(F)(F)F)cc2)cn1` [5-amino-N-(4-(trifluoromethyl)phenyl)pyrazine-2-carboxamide], the “MIC P. aeruginosa” value in data set [15] is given as 250 µM (≈ 70.6 µg/mL).

Turning to `O=C(O)c1cn(C2CC2)c2cc(N3CCNCC3)c(F)cc2c1=O` [ciprofloxacin], the minimum inhibitory concentration (MIC) in data set [1] (DSM43465) is 0.0625 to 0.125 µg/mL; in [16] it was 0.256 µg/mL (≈ 0.773 µM); in data set [3], 0.00781 to 0.0156 µg/mL (≈ 0.0236 to 0.0472 µM); in data set [17] it was 0.128 to 0.256 µg/mL (≈ 0.386 to 0.773 µM); in data set [18], 0.512 µg/mL (≈ 1.55 µM); in data set [19] it was over 1.02 µg/mL. For the same molecule, the MIC was over 1.02 µg/mL in data set [20], 0.008 µg/mL (≈ 0.0241 µM) in data set [21], 0.128 µg/mL (≈ 0.386 µM) in data set [22] and 0.128 µg/mL (≈ 0.386 µM) in data set [23].
